In one assay the target is T1, IRAK4 (Homo sapiens, UniProt Q9NWZ3).
T1 construct: endogenous in cells; host or cells: OCI-LY10
T1 sequence (Q9NWZ3 1-460): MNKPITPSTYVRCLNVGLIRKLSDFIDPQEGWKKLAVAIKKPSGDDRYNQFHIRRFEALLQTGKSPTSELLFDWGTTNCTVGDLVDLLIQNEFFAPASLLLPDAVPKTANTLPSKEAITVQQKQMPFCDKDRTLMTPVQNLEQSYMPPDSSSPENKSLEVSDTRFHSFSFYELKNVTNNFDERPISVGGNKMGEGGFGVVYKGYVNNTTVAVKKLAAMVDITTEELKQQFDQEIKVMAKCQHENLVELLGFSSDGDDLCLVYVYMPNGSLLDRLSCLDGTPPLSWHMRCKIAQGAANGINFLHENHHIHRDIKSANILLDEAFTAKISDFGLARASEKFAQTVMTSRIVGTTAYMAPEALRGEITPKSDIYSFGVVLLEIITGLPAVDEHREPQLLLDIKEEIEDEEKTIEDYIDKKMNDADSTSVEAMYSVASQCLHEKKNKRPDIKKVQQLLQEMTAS
Description: IRAK4 MSD degradation in OCI-LY10. The format is cell-based. To be noted: OCI-LY10 cells, 24 hrs, Meso Scale Discovery; read-out: IRAK4 MSD degradation in OCI-LY10 at 24 hrs: Average external-Abs DC50. As to the method: Degradation of IRAK4 in OCI-LY10 was quantitatively measured using Meso Scale Discovery technology. OCI-LY10 cells were seeded in 96-well plates (Corning 3799) with a density of 300,000 cells per well in 100 μL fresh media. Compounds were then added to the assay plates with a final top concentration of 1 to 10 μM in a 1:3 dilution series with total of 8 doses. The assay plates were then incubated for 4 to 24 hours at 37 under 5% CO2. The assay plates were then centrifuged for 5 minutes and the cell pellets were treated with 100 μL/well RIPA lysis buffer (Boston BioProducts BP-115D) with proteinase inhibitors. To prepare MSD assay plates (Meso Scale Discovery Catalog number L15XA-3), the plates were coated with 2 μg/mL capture antibody (mouse Anti-IRAK4 antibody [2H9], ab119942) in PBS, at 40 μL/well. […] The assay plates were then incubated at room temperature for 1 hour, washed 3 times with 150 μL/well TBST buffer, and 150 μL/well MSD reading buffer (Meso Scale Discovery catalog number R92TC-2) was added. The plates were then analyzed by a MSD reader (Meso Scale Discovery, Model Quick Plex SQ 120). The data was then analyzed by software Prism 7.0 from GraphPad and the dose-depended IRAK4 degradation were fit using a three-parameter logistic equation to calculate DC50. […]

A further assay concerns OCI-LY10 cells. Description: CTG Cell Viability Assay with OCI-LY10. The format is cell-based. To be noted: Homo sapiens, 96 h, 4 days, CellTiter-Glo, read-out: CTG Cell Viability in OCI-LY10: Average external DC50. As to the method:
Compound-mediated viability effect on OCI-LY10 or TMD8 was quantitatively determined using the CellTiter-Glo® Luminescent Cell Viability Assay kit from Promega (Catalog number G7570) following manufacturer's recommended procedures. Briefly, OCI-LY10 cells were seeded into 384 well plates (Grenier Bio-One, Catalog number 781080) with a density of 10,000 cells per well. Compounds were then added to the assay plate with final top concentration of 10 μM and 1:3 dilution series with total of 9 doses. The final DMSO concentration was normalized to 0.2%. The assay plates were incubated at 37° C. for 4 days under 5% CO2. Then the assay plate was equilibrated at room temperature for 10 minutes. To determine cell viability, 30 μL Cell Titer Glo reagent was added to each well and the assay plate was centrifuged at 1000 rpm for 30 second, incubated at room temperature for 10 min, and analyzed by detecting the luminescence using a multimode plate reader (EnVision 2105, PerkinElmer). The data was then analyzed by software Prism 7.0 from GraphPad and the dose response curves were fit using a three-parameter logistic equation to calculate IC50.
The letter codes for IRAK4 IC50 include: A (<0.05 μM), B (0.05-0.1 μM), C (0.1-0.5 μM), D (0.5-1.0 μM), and E (>1.0 μM).
In general terms: ATP-based viability assays read luminescence as a measure of living cells.

Experimental findings from patent US20240383887A1, “DEUTERATED IRAK DEGRADERS AND USES THEREOF” (Kymera Therapeutics, Inc., priority 2021, published 2024) are described below.

The structures appear in SMILES notation.

With `[2H]C([2H])([2H])C(O)(c1cc2nc([C@H]3CC[C@H](CN4CC5(CC(CCNc6cccc7c6C(=O)N(C6CCC(=O)NC6=O)C7=O)C5)C4)CC3)sc2cc1NC(=O)c1cccc(C(F)(F)F)n1)C([2H])([2H])[2H]` (some centres unmarked) [Compound I-1, N-[2-[4-[[6-[2-[[2-(2,6-dioxo-3-piperidyl)-1,3-dioxo-isoindolin-4-yl]amino]ethyl]-2-azaspiro[3.3]heptan-2-yl]methyl]cyclohexyl]-5-[2,2,2-trideuterio-1-hydroxy-1-(trideuteriomethyl)ethyl]-1,3-benzothiazol-6-yl]-6-(trifluoromethyl)pyridine-2-carboxamide], the half-maximal degradation concentration (DC50) at IRAK4 was below 10 nM. For the same compound, the IC50 in the assay with OCI-LY10 cells fell in the range of 100 to 500 nM.

Broadly, the DC50 is the concentration at which degradation of the target reaches its halfway point.
